Experiments:
[1] = pA2 value, a dose-response plot was obtained by determining the response when the concentration of glucagon was varied while the concentration was kept same.
[2] = target: Glucagon receptor (Rattus norvegicus, UniProt P30082); assay: Compound was evaluated for its ability to displace radiolabeled glucagon (inactive up to 100 uM)
Sequence of Glucagon receptor (P30082 whole entry): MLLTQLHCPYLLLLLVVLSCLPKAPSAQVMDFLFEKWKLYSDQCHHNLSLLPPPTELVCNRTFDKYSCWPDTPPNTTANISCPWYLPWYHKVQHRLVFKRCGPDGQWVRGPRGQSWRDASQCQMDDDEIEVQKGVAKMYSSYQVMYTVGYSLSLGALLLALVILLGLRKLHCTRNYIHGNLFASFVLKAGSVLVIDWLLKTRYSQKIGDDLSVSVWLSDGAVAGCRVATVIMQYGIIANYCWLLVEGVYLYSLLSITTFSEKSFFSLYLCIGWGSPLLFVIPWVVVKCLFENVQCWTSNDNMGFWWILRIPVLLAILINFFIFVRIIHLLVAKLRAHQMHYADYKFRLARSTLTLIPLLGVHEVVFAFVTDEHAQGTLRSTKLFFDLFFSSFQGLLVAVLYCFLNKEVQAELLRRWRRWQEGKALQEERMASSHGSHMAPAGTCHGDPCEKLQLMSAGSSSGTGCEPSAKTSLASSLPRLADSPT

## CSCC[C@H](NC(=O)[C@H](CC(C)C)NC(=O)[C@H](Cc1c[nH]c2ccccc12)NC(=O)[C@H](CCC(N)=O)NC(=O)[C@@H](NC(=O)[C@H](Cc1ccccc1)NC(=O)[C@H](CC(=O)O)NC(=O)[C@H](CCC(N)=O)NC(=O)[C@H](C)NC(=O)[C@H](CCCN=C(N)N)NC(=O)[C@H](CCCN=C(N)N)NC(=O)[C@H](CO)NC(=O)[C@H](CC(=O)O)NC(=O)[C@H](CC(C)C)NC(=O)[C@H](Cc1ccc(O)cc1)NC(=O)[C@H](CCCCN=C(N)N)NC(=O)[C@H](CO)NC(=O)[C@H](Cc1ccc(O)cc1)NC(=O)[C@H](CC(=O)O)NC(=O)[C@H](CO)NC(=O)[C@@H](NC(=O)[C@H](Cc1ccccc1)NC(=O)[C@@H](NC(=O)CNC(=O)[C@H](CCC(N)=O)NC(=O)[C@H](CO)NC(=O)[C@H](Cc1c[nH]cn1)Nc1c([N+](=O)[O-])cc([N+](=O)[O-])cc1[N+](=O)[O-])[C@@H](C)O)[C@@H](C)O)C(C)C)C(=O)N[C@@H](CC(N)=O)C(=O)N[C@H](C(=O)O)[C@@H](C)O
[1]
  pA2: 8.16
[2]
  IC50: 15 nM
